Laboratory results from US9073918B2, “Pyrazolo[4,3-b]pyridine-7-amine inhibitors of ALK5” (Takeda Pharmaceutical Company Limited, priority 2010, dated 2015).

Assays:
TGF-β R1 ALK5 = molecular target: T1, TGF-β R1 ALK5 (Homo sapiens, UniProt P36897); test: In vitro inhibition of ALK5 (LanthaScreen activity assay, TR-FRET); assay type: biochemical
T1 construct: purchased Invitrogen PV5837
T1 sequence (P36897 34-503): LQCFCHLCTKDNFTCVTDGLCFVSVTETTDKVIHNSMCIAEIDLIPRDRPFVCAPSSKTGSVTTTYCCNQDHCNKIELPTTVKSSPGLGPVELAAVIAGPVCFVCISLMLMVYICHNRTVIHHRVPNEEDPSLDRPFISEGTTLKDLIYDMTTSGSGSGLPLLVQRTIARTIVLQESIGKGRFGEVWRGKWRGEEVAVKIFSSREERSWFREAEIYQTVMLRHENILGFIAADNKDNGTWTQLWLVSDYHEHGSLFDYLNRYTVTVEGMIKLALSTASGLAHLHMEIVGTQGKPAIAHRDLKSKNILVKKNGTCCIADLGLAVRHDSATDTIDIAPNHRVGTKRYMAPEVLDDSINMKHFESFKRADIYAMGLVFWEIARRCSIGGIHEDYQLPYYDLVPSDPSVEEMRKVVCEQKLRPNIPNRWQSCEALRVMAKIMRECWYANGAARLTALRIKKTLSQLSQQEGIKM
Method: Test compounds were screened for TGF-β R1 ALK5 inhibition by use of a LanthaScreen™ activity assay (PV5837 Invitrogen, Invitrogen Corp. Madison, Wis.).
In brief, the assay procedure was as follows:
Solutions of test compounds were prepared in DMSO and diluted two-fold serially.
Assays were incubated for 90 minutes at room temperature and then quenched by the addition of 60 mM EDTA and 8 nM Terbium labeled anti-pSMAD3 Antibody (M4337 from Invitrogen) giving a final concentration of 15 mM EDTA and 2 nM Terbium labeled anti-pSMAD3 Antibody. Phosphorylated peptide product was quantified by measuring an increase in TR-FRET on a BMG LABTECH PHERA star plus. Response is defined as the ratio of Channel A/Channel B. The response of a blank (uninhibited) using vehicle alone is also determined. Enzyme activity was defined as the response of uninhibited enzyme activity minus the response of assays containing no enzyme. The percent inhibition of ALK5 at a given compound concentration is defined as: 100%×[1−(response compound/response blank)]
where response compound is defined as the enzyme activity in the presence of test compound and response blank is defined as the uninhibited enzyme activity. The pIC50 value (negative log of the molar concentration of the compound that produces 50% inhibition) of a test compound is calculated by non-linear least squares curve fitting of the equation: Percent Inhibition=100%/(1+(10−pIC50/10 log [I])).
Where inhibition was measured in multiple experiments the value in Table 1 is an average. N.T. means not tested.

cellular TGF-β R1 ALK5 = molecular target: T2, cellular TGF-β R1 ALK5 (Homo sapiens, UniProt P36897); test: Cellular inhibition of ALK5 (CellSensor SBE-bla HEK 293T beta-lactamase reporter); assay type: cell-based; details: cellular inhibition of ALK5, SBE-bla HEK 293T cells, TGFb-1 stimulated 5 hours; average where measured in multiple experiments
T2 construct: host or cells: CellSensor SBE-bla HEK 293T
T2 sequence (P36897 34-503): T1 sequence (P36897 34-503)
From the text: Test compounds were screened for cellular TGF-β R1 ALK5 inhibition by use of a CellSensor® SBE-bla HEK 293T (K1550, Invitrogen Corp. Madison, Wis.) cell line. The CellSensor® SBE-bla HEK 293T cell line contains a beta-lactamase reporter gene under control of the SBE response element stably integrated into HEK 293T cells. The SBE response element is a DNA region that binds activated SMADs which results from the binding of TGF-β to, and subsequent activation of ALK5.
The assay procedure was as follows:
CellSensor® SBE-bla HEK 293T cell line were plated at 12,000 cells/well in 40 ul DMEM plus 5 ug/ml blasticidin into 384-well, black-wall, clear-bottom assay plate and incubated overnight.
The following day 5 uL of 10×, 2.5-fold serially diluted test compounds in DMSO were added into cells to a final compound concentration of 1× and DMSO concentration of 0.5%. Assay was incubated for 1 hour at 37° C., 5% CO2, 5 uL of 100 ng/mL TGFb-1 was then added to activate ALK5 and incubated for 5 hours at 37° C., 5% CO2, 10 uL of detector, LiveBLAzer FRET B/G substrate (CCF4-AM, Invitrogen Corp. Madison, Wis.) was added to cells and incubated for 2 hours at RT. Assay was measured using Spectramax, a bottom-read fluorescence plate reader, at excitation setting of 405 nm and emission settings of 460 nm and 530 nm.
Response is defined as the ratio of background corrected 460 nm emission values/background corrected 530 nm emission values. Cellular activity was defined as percent inhibition of uninhibited ALK5 activity (wells treated with DMSO+TGF-β). The percent inhibition of cellular ALK5 at a given compound concentration is defined as: 100%×[1−(response compound+TGF-β/response DMSO+TGF-β)] where response compound+TGF-β is defined as the activity in the presence of test compound and response DMSO+TGF-β is defined as the uninhibited cellular ALK5 activity. The pIC50 value (negative log of the molar concentration of the compound that produces 50% inhibition) of a test compound is calculated by non-linear least squares curve fitting. pIC50 values, the negative of the log of the IC50, are calculated by non-linear curve fitting of the compound concentrations and percent of inhibition to the standard pIC50 equation.
Where inhibition was measured in multiple experiments the value in Table 2 is an average. N.T. means not tested.

| Compound | pIC50 (TGF-β R1 ALK5; in vitro inhibition of ALK5, 15 nM ALK5, 2 μM ATP, Fluorescein-SMAD3 peptide, 90 minutes at room temperature, average where measured in multiple experiments) | pIC50 (cellular TGF-β R1 ALK5) | IC50 (TGF-β R1 ALK5) [nM] | IC50 (cellular TGF-β R1 ALK5) [nM] |
| --- | --- | --- | --- | --- |
| N-(2-(5-chloro-2-fluorophenyl)pyridin-4-yl)-2-(2-methoxyethyl)-2H-pyrazolo[4,3-b]pyridin-7-amine and N-(2-(5-chloro-2-fluorophenyl)pyridin-4-yl)-1-(2-methoxyethyl)-2H-pyrazolo[4,3-b]pyridin-7-amine [Example 35] | 6.6 | 6.6 | – | – |
| CCNC(=O)n1ncc2nccc(Nc3cc(-c4cc(F)ccc4F)ncc3C)c21 [Example 109, 7-(2-(2,5-difluorophenyl)-5-methylpyridin-4-ylamino)-N-ethyl-1H-pyrazolo[4,3-b]pyridine-1-carboxamide] | – | – | 1.58 | 20 |
| CCn1cc2nccc(Nc3ccnc(-c4nc(C)ccc4F)c3)c2n1 [Example 125, 2-ethyl-N-(3′-fluoro-6′-methyl-2,2′-bipyridin-4-yl)-2H-pyrazolo[4,3-b]pyridin-7-amine] | – | – | 15.8 | 39.8 |
| CNC(=O)Cn1cc2ncc(F)c(Nc3cc(-c4nc(C)ccc4F)ncc3C)c2n1 [Example 147, 2-(6-fluoro-7-(3′-fluoro-5,6′-dimethyl-2,2′-bipyridin-4-ylamino)-2H-pyrazolo[4,3-b]pyridin-2-yl)-N-methylacetamide] | – | – | 31.6 | 200 |
| Cc1cnc(-c2cc(Cl)ccc2F)cc1Nc1ccnc2cnn(C(=O)NC(C)C)c12 [Example 54, 7-(2-(5-chloro-2-fluorophenyl)-5-methylpyridin-4-ylamino)-N-isopropyl-1H-pyrazolo[4,3-b]pyridine-1-carboxamide] | – | – | 63.1 | 100 |
| CCNC(=O)n1ncc2nccc(Nc3cc(-c4nc(C)ccc4F)ncc3C)c21 [Example 115, N-ethyl-7-(3′-fluoro-5,6′-dimethyl-2,2′-bipyridin-4-ylamino)-1H-pyrazolo[4,3-b]pyridine-1-carboxamide] | – | – | < 1 | 6.31 |
| CCNC(=O)Cn1ncc2nccc(Nc3cc(-c4nc(C)ccc4F)ncc3C)c21 [Example 153, N-ethyl-2-(7-(3′-fluoro-5,6′-dimethyl-2,2′-bipyridin-4-ylamino)-1H-pyrazolo[4,3-b]pyridin-1-yl)acetamide] | – | – | 7.94 | 79.4 |
| Cc1ccc(F)c(-c2cc(Nc3ccnc4cnn(CCF)c34)ccn2)n1 [Example 101, N-(3′-fluoro-6′-methyl-2,2′-bipyridin-4-yl)-1-(2-fluoroethyl)-1H-pyrazolo[4,3-b]pyridin-7-amine] | – | – | 25.1 | 100 |
| CNC(=O)n1ncc2nccc(Nc3ccnc(-c4cc(Cl)c(F)cc4F)c3)c21 [Example 63, 7-(2-(5-chloro-2,4-difluorophenyl)pyridin-4-ylamino)-N-methyl-1H-pyrazolo[4,3-b]pyridine-1-carboxamide] | – | – | 31.6 | 398 |
| CC(C)n1ncc2nccc(Nc3ccnc(-c4cc(Cl)ccc4F)c3)c21 [Example 20, N-(2-(5-chloro-2-fluorophenyl)pyridin-4-yl)-1-isopropyl-1H-pyrazolo[4,3-b]pyridin-7-amine] | – | – | 39.8 | 100 |
| CNC(=O)n1ncc2nccc(Nc3cc(C)nc(-c4cc(Cl)ccc4F)c3)c21 [Example 58, 7-(2-(5-chloro-2-fluorophenyl)-6-methylpyridin-4-ylamino)-N-methyl-1H-pyrazolo[4,3-b]pyridine-1-carboxamide] | – | – | 79.4 | 126 |
| CNC(=O)n1ncc2nccc(Nc3ccnc(-c4cc(Cl)ccc4F)c3)c21 [Example 32, 7-(2-(5-chloro-2-fluorophenyl)pyridin-4-ylamino)-N-methyl-1H-pyrazolo[4,3-b]pyridine-1-carboxamide] | – | – | 50.1 | 50.1 |
| CCNC(=O)Cn1ncc2nccc(Nc3cc(-c4cc(F)ccc4F)ncc3C)c21 [Example 155, 2-(7-(2-(2,5-difluorophenyl)-5-methylpyridin-4-ylamino)-1H-pyrazolo[4,3-b]pyridin-1-yl)-N-ethylacetamide] | – | – | 25.1 | 794 |
| Cc1cnc(-c2cc(Cl)ccc2F)cc1Nc1ccnc2cn(CC(N)=O)nc12 [Example 50, 2-(7-(2-(5-chloro-2-fluorophenyl)-5-methylpyridin-4-ylamino)-2H-pyrazolo[4,3-b]pyridin-2-yl)acetamide] | – | – | 15.8 | 12.6 |
| Cc1ccc(F)c(-c2cc(Nc3ccnc4cn(CCCO)nc34)c(C)cn2)n1 [Example 90, 3-(7-(3′-fluoro-5,6′-dimethyl-2,2′-bipyridin-4-ylamino)-2H-pyrazolo[4,3-b]pyridin-2-yl)propan-1-ol] | – | – | 7.94 | 63.1 |
| Cc1ccc(F)c(-c2cc(Nc3ccnc4cn(C(C)C)nc34)ccn2)n1 [Example 68, N-(3′-fluoro-6′-methyl-2,2′-bipyridin-4-yl)-2-isopropyl-2H-pyrazolo[4,3-b]pyridin-7-amine] | – | – | 1260 | 1260 |
| Cc1cnc(-c2cc(Cl)ccc2F)cc1Nc1ccnc2cn[nH]c12 [Example 49, N-(2-(5-chloro-2-fluorophenyl)-5-methylpyridin-4-yl)-1H-pyrazolo[4,3-b]pyridin-7-amine] | – | – | 31.6 | 31.6 |
| Cc1nc(-c2cc(F)ccc2F)cc(Nc2ccnc3c[nH]nc23)c1C [Example 95, N-(6-(2,5-difluorophenyl)-2,3-dimethylpyridin-4-yl)-2H-pyrazolo[4,3-b]pyridin-7-amine] | – | – | 20 | 158 |
| CNC(=O)n1ncc2nccc(Nc3cc(-c4cccc(C)n4)ncc3C)c21 [Example 81, 7-(5,6′-dimethyl-2,2′-bipyridin-4-ylamino)-N-methyl-1H-pyrazolo[4,3-b]pyridine-1-carboxamide] | – | – | 63.1 | 126 |
| Cc1ccc(F)c(-c2cc(Nc3ccnc4cnn(C)c34)c(C)cn2)n1 [Example 124, N-(3′-fluoro-5,6′-dimethyl-2,2′-bipyridin-4-yl)-1-methyl-1H-pyrazolo[4,3-b]pyridin-7-amine] | – | – | 3.98 | 6.31 |
| OC[C@H](O)Cn1cc2nccc(Nc3ccnc(-c4cc(Cl)ccc4F)c3)c2n1 [Example 46, (R)-3-(7-(2-(5-chloro-2-fluorophenyl)pyridin-4-ylamino)-2H-pyrazolo[4,3-b]pyridin-2-yl)propane-1,2-diol] | – | – | 63.1 | 316 |
| Cc1ccc(F)c(-c2cc(Nc3c(F)cnc4cn(CC(C)(C)O)nc34)c(C)cn2)n1 [Example 99, 1-(6-fluoro-7-(3′-fluoro-5,6′-dimethyl-2,2′-bipyridin-4-ylamino)-2H-pyrazolo[4,3-b]pyridin-2-yl)-2-methylpropan-2-ol] | – | – | 501 | 1260 |
